US3974281A, “5-Methyl-1-phenyl-2-(1H)-pyridone compositions and methods of use” (priority 1974, dated 1976)

What was measured:
[1] = system: mucous membranes of the nasopharynx and lungs; experiment: Protection of mucous membranes of the nasopharynx and lungs, comparison with related pyridones; assay type: in vivo; details: for protection of mucous membranes of the nasopharynx and lungs: comparison with related pyridones; for side effects / deleterious effects on the respiratory system: mucous membrane protection tests
[2] = General comparison of side effects and therapeutic activity in the several tests; details: in vivo
[3] = system: edema (swelling), experimental inflammation in the hind limb of rats; experiment: Anti-inflammatory activity, reduction of edema of experimentally inflamed hind limb; assay type: in vivo, albino rats; details: for anti-inflammatory effect: oral dosage of 600 mg./kg.; for ED50: Rattus norvegicus, read-out: oral median effective dose (ED50), anti-inflammatory
Procedure: anti-inflammatory activity was assayed by the method described by Margolin (ibid.) utilizing albino rats. The anti-inflammatory bio-assay basis is the ability to reduce the edema (swelling) when an experimental inflammation is induced in the hind limb of the rats.

[4] = system: rats with the hind limb inflammed; experiment: Analgesic activity, rats with inflamed hind limb (absence of squeal on flexion of inflamed ankle joint); assay type: in vivo, rat; details: for ED50: Rattus norvegicus, read-out: oral ED50 (median analgesic dose); for ED50 / side effects at the median analgesic dose: oral; for side effects at the median analgesic dose: at ED50 dosage (AMR-94 160 mg./kg.; AMR-93 325 mg./kg.)
Procedure: the end-point for analgesic testing in rats with the hind limb inflammed is based on the absence of a squeal in response to flexion of the inflammed ankle joint (Method described by S. Margolin, Proceedings of an International Symposium on Non-Steroidal Anti-Inflammatory Drugs, Excerpta Medica International Congress, Series No. 82, 1964).
With AMR-93, the median effective dose was 325 ± 45 mg./kg.

[5] = system: experimentally-induced fever in albino rabbits; experiment: Anti-pyretic activity, experimentally-induced fever in rabbits; assay type: in vivo; details: for anti-pyretic activity: induced fever
Procedure: anti-pyretic activity testing is based upon the ability of the drug to suppress the experimentally-induced fever in albino rabbits (F. M. Berger, et al. J. Pharmacology and Experimental Therapeutics, Vol. 127, No. 1, 1959 based upon the original presentations of G. Brownlee Quart. J. Pharm; Vol. 10, Pg. 609, 1937 and Quart. J. Pharm., Vol. 12, Pg. 45, 1939). The drugs under test are administered intraperitoneally and the response is compared to that of saline controls. The average change in temperature over a period of three hours following the administration of aminopyrine (100 mg./kg. i.p.), AMR-69 (100 mg./kg. i.p.) and the saline (isotonic) controls were as follows:
The effective anti-pyretic activity of AMR-69 in rabbits has been noted previously.

serum uric acid = experiment: Reduction in serum uric acid levels, rats; assay type: in vivo, albino male and female rats; details: albino male and female rats, similar tests
Procedure: normal adult albino male and female rats were given repeated graded doses of AMR-69 and the effect upon serum uric acid levels was determined. There were 10 males and 10 females in each group. The control group received the placebo and the drug was administered orally by admixture to the food. The serum uric acid determination was one of a series performed utilizing the Autotechnicon technique (Lofland et al., 1965 Technicon Symposium) using the Standard SMA-12 procedure (based upon procedure of Bittner et al., AM. J. Clin. Path. 40:423, 1963).
The lowering in serum uric acid levels shown by AMR-69 in tests on rats and on dogs has been noted.

Acute toxicity in mice = assay type: in vivo; details: mouse, in vivo, ip; fasted albino mice, intraperitoneal; read-out: Intraperitoneally LD50
Procedure: in fasted albino mice (Flanders) the LD50 for AMR-69 and aminopyrine was determined by standard procedures with the following results: […]

[6] = system: experimentally-induced fever in albino rabbits; experiment: Anti-pyretic activity, experimentally-induced fever in rabbits; assay type: in vivo; details: animals without experimentally induced fever as well

O=c1ccccn1-c1ccccc1 [AMR-93, 1-phenyl-2-(1H)-pyridone]
protection of mucous membranes of the nasopharynx and lungs [1]: did not show a protective effect
side effects / deleterious effects on the respiratory system [1]: undesirable side effects were evident
deleterious side effects in the several tests [2]: accompanied by deleterious side effects
anti-inflammatory effect [3]: No anti-inflammatory effect was observed
ED50 [4]: 325 ± 45 mg/kg
side effects at the median analgesic dose [4]: acute bleeding from the nose and an autopsy revealed multiple hemorrhages and edema of the lungs
anti-pyretic activity ([5]; rabbits): No significant anti-pyretic activity was observed
change in serum uric acid level (serum uric acid): did not show a significant change in serum uric acid level

Cc1c(N(C)C)c(=O)n(-c2ccccc2)n1C [Aminopyrine, aminopyrine, reference compound]
ED50 ([3]; oral): 185 ± 31 mg/kg
ED50 [4]: 150 ± 26 mg/kg
LD50 (Acute toxicity in mice): 175 ± 9 mg/kg
average change in temperature over a period of three hours ([5]; 100 mg./kg. i.p., fevered albino rabbits, saline controls +0.9 ±0.17°C): -0.6 ±0.16 °C
reduction in fever as compared to the saline control ([5]; 100 mg./kg. i.p., aminopyrine t = 6.6, p < 0.01, AMR-69 t = 6.3, p < 0.01): highly significant

CCc1ccc(=O)n(-c2ccccc2)c1 [AMR-94, 5-ethyl-1-phenyl-2-(1H)-pyridone]
protection of mucous membranes of the nasopharynx and lungs [1]: did not show a protective effect
side effects / deleterious effects on the respiratory system [1]: undesirable side effects were evident
deleterious side effects in the several tests [2]: accompanied by deleterious side effects
effect on normal body temperature [6]: marked lowering of normal body temperature
ED50 ([3]; oral): 225 ± 52 mg/kg
side-effects at anti-inflammatory ED50 ([3]; oral): accompanied by undesired side-effects
analgesic effect at a dosage low enough to obviate Central Nervous System depression [4]: could not be demonstrated
ED50 [4]: 160 ± 32 mg/kg
side effects at the median analgesic dose [4]: marked sedation, Central Nervous System depression, loss of respiratory efficiency, ataxia, and uncoordinated gait
convulsions observed, test animals ([5]; rabbits): two of the four
anti-pyretic activity ([5]; rabbits): slight reduction in induced fever which was not considered statistically significant
change in serum uric acid level (serum uric acid): did not show a significant change in serum uric acid level

Cc1cccn(-c2ccccc2)c1=O [AMR-77, 3-methyl-1-phenyl-2-(1H)-pyridone]
protection of mucous membranes of the nasopharynx and lungs [1]: no evidence of protective action
side effects / deleterious effects on the respiratory system [1]: No acute deleterious effects on the respiratory system were observed
deleterious side effects in the several tests [2]: not observed
therapeutic activity in the several tests [2]: neither was significant therapeutic activity demonstrated
anti-inflammatory effect [3]: No anti-inflammatory effect was observed
ED50 [4]: 515 ± 45 mg/kg
analgesic activity relative to AMR-69 ([4]; oral route): approximately one-third to one-fourth the activity of AMR-69
anti-pyretic activity ([5]; rabbits): No significant anti-pyretic activity was observed
